In PMC3513622 (Antiviral research, 2012):
Like-named read-outs stand apart in the source and are kept apart here.

Key:
Epstein-Barr virus (EBV) [1] = details: for IC50: IgG induction, 0.0005-30μM, EBV genomes by qPCR
EBV early protein EA-D = details: for EA-D expression (immunoblot) / level of hyperphosphorylated form of EA-D (top band): 24 hours after induction; for viral reactivation assessed by expression of EA-D, in words: concentration not stated at the place (Fig. 2: 1 and 10μM)
in vitro = details: human
Akata cells [2] = tested on: Akata cells
[3] = target: T1, EBV-encoded protein kinase (EBV-PK, BGLF4) (Epstein-Barr virus, UniProt P13288); test: In vitro kinase assay of GST-BGLF4; assay type: biochemical; details: 10μM inhibitor, MBP substrate, 50μM ATP, filter binding
T1 sequence (P13288 1-429): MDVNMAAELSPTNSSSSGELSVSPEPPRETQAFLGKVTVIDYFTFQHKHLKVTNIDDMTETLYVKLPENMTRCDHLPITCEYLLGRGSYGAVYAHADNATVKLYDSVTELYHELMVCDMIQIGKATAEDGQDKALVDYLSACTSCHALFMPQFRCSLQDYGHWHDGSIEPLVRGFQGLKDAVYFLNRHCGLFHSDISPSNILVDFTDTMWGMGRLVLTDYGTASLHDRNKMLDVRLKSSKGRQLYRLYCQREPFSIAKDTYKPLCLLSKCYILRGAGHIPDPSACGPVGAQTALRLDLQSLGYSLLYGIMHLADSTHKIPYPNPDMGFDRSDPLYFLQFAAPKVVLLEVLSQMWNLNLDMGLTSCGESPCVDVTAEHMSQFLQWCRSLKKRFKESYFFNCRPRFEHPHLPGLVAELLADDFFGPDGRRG

Epstein-Barr virus (EBV) [4] = test: microbe, parasite or virus in culture; details: human gammaherpesvirus 4, Akata, 48 h
[5] = Cell viability of Akata cells, modified MTS assay; details: human, latently EBV-infected Akata cells
purified EBV-PK = details: ref Gershburg et al., 2004; Marschall et al., 2002; cited from earlier work
[6] = tested on: human cytomegalovirus (HCMV) pUL97 protein kinase; details: 2002, cited from earlier work
EBV = details: ref Gershburg et al., 2004; Wang et al., 2009; Zacny et al., 1999; cited from earlier work
Akata cells [7] = test: Cell viability of Akata cells, modified MTS assay; details: Akata cells, 48 hours, 0.0005-30μM, modified MTS assay
[8] = 10μM PKI, Akata cells, 48 hours after IgG induction

## Nc1ncnc2c1c(I)cn2[C@@H]1O[C@H](CO)[C@@H](O)[C@H]1O [5-Iodotubercidin]
Epstein-Barr virus (EBV) [1]; [8]
  effect on EBV replication in words: effective in inhibiting the EBV replication
Epstein-Barr virus (EBV) [1]; Akata cells, 48 hours
  IC50: 890 nM
EBV early protein EA-D; 1μM PKI, Fig. 2B
  EA-D expression (immunoblot): did not affect the expression of EA-D

## Nc1nc2c(ncn2COCCO)c(=O)[nH]1 [ACV, acyclovir]
Epstein-Barr virus (EBV) [1]; 50μM ACV, Akata cells, 48 hours after IgG induction
  reduction of viral replication relative to DMSO treatment: 88±6%
In vitro
  viability at 48 h, 50 μM: 89 ± 4%

## Cc1ccc(S(=O)(=O)/C=C/C#N)cc1 [BAY 11-7082]
Epstein-Barr virus (EBV) [1]; 10μM PKI, Akata cells, 48 hours after IgG induction, listed as BAY-11-7082
  effect on EBV replication in words: effective in inhibiting the EBV replication
Epstein-Barr virus (EBV) [1]; 10μM PKI, Akata cells, 48 hours after IgG induction, listed as Bay 11-7082
  effect on EBV replication in words: inhibited viral replication
Epstein-Barr virus (EBV) [1]; Akata cells, 48 hours
  IC50: 208 nM
Akata cells [2]
  CC50: 2640 nM
EBV early protein EA-D; 1μM PKI, Fig. 2B
  EA-D expression (immunoblot): intermediate
  level of hyperphosphorylated form of EA-D (top band): more pronounced effect on the levels of the hyperphosphorylated form of EA-D
EBV early protein EA-D; 10μM, Fig. 2A
  expression levels of housekeeping genes (β-actin): loss of β-actin

## COC(=O)/C=C/c1cc(O)ccc1O [Erbstatin analog]
Epstein-Barr virus (EBV) [1]; [8]
  effect on EBV replication in words: inhibited EBV replication in cells
Epstein-Barr virus (EBV) [1]; Akata cells, 48 hours
  IC50: 2370 nM
EBV early protein EA-D; 1μM PKI, Fig. 2B
  EA-D expression (immunoblot): did not affect the expression of EA-D
EBV early protein EA-D
  viral reactivation assessed by expression of EA-D, in words: did not inhibit viral reactivation

## COC(=O)[C@@]1(O)C[C@H]2O[C@]1(C)n1c3ccccc3c3c4c(c5c6ccccc6n2c5c31)C(=O)NC4 [K252A]
Epstein-Barr virus (EBV) [1]
  TI (therapeutic index, CC50/IC50 ratio): 6
Epstein-Barr virus (EBV) [1]; 10μM PKI, Akata cells, 48 hours after IgG induction, mean ± sem of 3 experiments
  inhibition of EBV replication relative to DMSO treatment: 92±6%
Epstein-Barr virus (EBV) [1]; Akata cells, 48 hours
  IC50: 14 nM
Akata cells [2]
  CC50: 80 nM
[3]
  inhibition of GST/EBV-PK activity relative to DMSO: about 75%
EBV early protein EA-D; 1μM PKI, Fig. 2B
  EA-D expression (immunoblot): no EA-D expression was detected
EBV early protein EA-D
  viral reactivation assessed by expression of EA-D, in words: block expression of EBV early protein EA-D

## O=C1Cc2c([nH]c3ccc(Br)cc23)-c2ccccc2N1 [Kenpaullone]
Epstein-Barr virus (EBV) [1]
  TI (therapeutic index, CC50/IC50 ratio): 8
Epstein-Barr virus (EBV) [1]; [8]
  effect on EBV replication in words: effective in inhibiting the EBV replication
Epstein-Barr virus (EBV) [4]
  IC50: 681 nM
EBV early protein EA-D; 1μM PKI, Fig. 2B
  EA-D expression (immunoblot): did not affect the expression of EA-D
[5]
  CC50 at 48 h: 5130 nM

## O=c1cc(N2CCOCC2)oc2c(-c3ccccc3)cccc12 [LY 294002]
Epstein-Barr virus (EBV) [1]
  TI (therapeutic index, CC50/IC50 ratio): 3
Epstein-Barr virus (EBV) [4]
  IC50: 1840 nM
EBV early protein EA-D; 1μM PKI, Fig. 2B
  EA-D expression (immunoblot): intermediate
  level of hyperphosphorylated form of EA-D (top band): more pronounced effect on the levels of the hyperphosphorylated form of EA-D
In vitro
  CC50: 6160 nM

## CC(C)Nc1nc2cc(Cl)c(Cl)cc2n1[C@H]1O[C@@H](CO)[C@H](O)[C@@H]1O [MBV, maribavir]
Purified EBV-PK
  effect on activity of purified EBV-PK: did not inhibit
[6]; ref Biron et al., Hamirally et al., 2009
  concentration inhibiting pUL97 autophosphorylation activity: 1 μM
EBV
  effect on EBV replication: inhibits EBV replication

## N#CCCn1c2ccccc2c2c3c(c4c5ccccc5[nH]c4c21)C(=O)NC3 [NGIC-I, non-glycosidic indolocarbazole I]
Purified EBV-PK
  effect on activity of purified EBV-PK: did not inhibit
[6]; ref Marschall et al.
  concentration inhibiting pUL97 autophosphorylation activity: 0.5 μM

## CO[C@@H]1[C@H](N(C)C(=O)c2ccccc2)C[C@H]2O[C@]1(C)n1c3ccccc3c3c4c(c5c6ccccc6n2c5c31)C(=O)NC4 [PKC-412]
Epstein-Barr virus (EBV) [1]; 10μM PKI, Akata cells, 48 hours after IgG induction, listed as PKC412
  effect on EBV replication in words: effective in inhibiting the EBV replication
Epstein-Barr virus (EBV) [4]
  IC50: 31 nM
EBV early protein EA-D; 1μM PKI, Fig. 2B
  EA-D expression (immunoblot): no EA-D expression was detected
EBV early protein EA-D
  viral reactivation assessed by expression of EA-D, in words: block expression of EBV early protein EA-D
In vitro
  CC50 at 48 h: 56 nM

## Cn1cc(C2=C(c3cn(CCCSC(=N)N)c4ccccc34)C(=O)NC2=O)c2ccccc21 [Ro 31-8220]
Epstein-Barr virus (EBV) [1]; [8]
  effect on EBV replication in words: effective in inhibiting the EBV replication
Epstein-Barr virus (EBV) [1]; Akata cells, 48 hours
  TI (therapeutic index, CC50/IC50 ratio): 3
  IC50: 398 nM
EBV early protein EA-D; 1μM PKI, Fig. 2B
  EA-D expression (immunoblot): did not affect the expression of EA-D
  level of hyperphosphorylated form of EA-D (top band): increased level of this form
Akata cells [7]
  CC50: 1150 nM

## CC(=O)c1c(O)c(C)c(O)c(Cc2c(O)c3c(c(C(=O)/C=C/c4ccccc4)c2O)OC(C)(C)C=C3)c1O [Rottlerin]
Epstein-Barr virus (EBV) [1]; [8]
  effect on EBV replication in words: effective in inhibiting the EBV replication
Epstein-Barr virus (EBV) [1]; Akata cells, 48 hours
  TI (therapeutic index, CC50/IC50 ratio): 1
Epstein-Barr virus (EBV) [4]
  IC50: 983 nM
EBV early protein EA-D; 1μM PKI, Fig. 2B
  EA-D expression (immunoblot): did not affect the expression of EA-D
In vitro
  CC50 at 48 h: 1000 nM

## CN[C@@H]1C[C@H]2O[C@@](C)([C@@H]1OC)n1c3ccccc3c3c4c(c5c6ccccc6n2c5c31)C(=O)NC4 [Staurosporine]
Epstein-Barr virus (EBV) [1]; [8]
  effect on EBV replication in words: inhibited viral replication
Epstein-Barr virus (EBV) [1]; 10μM PKI, Akata cells, 48 hours after IgG induction, listed as Staurosporin
  effect on EBV replication in words: significantly reduced the EBV genome copy numbers
EBV early protein EA-D
  viral reactivation assessed by expression of EA-D, in words: block expression of EBV early protein EA-D
In vitro
  CC50: 4 nM

## CC(C)(C)c1cc(C=C(C#N)C#N)cc(C(C)(C)C)c1O [Tyrphostin 9]
Epstein-Barr virus (EBV) [1]; Akata cells, 48 hours
  TI (therapeutic index, CC50/IC50 ratio): 3
  IC50: 217 nM
EBV early protein EA-D; 1μM PKI, Fig. 2B
  EA-D expression (immunoblot): did not affect the expression of EA-D
Akata cells [7]
  CC50: 573 nM

## N#CC(=C(/N)Sc1ccccc1N)/C(C#N)=C(/N)Sc1ccccc1N [U-0126]
Epstein-Barr virus (EBV) [1]
  TI (therapeutic index, CC50/IC50 ratio): 13
Epstein-Barr virus (EBV) [1]; [8]
  effect on EBV replication in words: effective in inhibiting the EBV replication
Epstein-Barr virus (EBV) [1]; Akata cells, 48 hours
  IC50: 552 nM
Akata cells [2]
  CC50: 7380 nM
EBV early protein EA-D; 1μM PKI, Fig. 2B
  EA-D expression (immunoblot): did not affect the expression of EA-D
EBV early protein EA-D; 10μM PKI, Fig. 2A
  EA-D expression (immunoblot): remain relatively high
EBV early protein EA-D
  viral reactivation assessed by expression of EA-D, in words: did not inhibit viral reactivation

## COC[C@H]1OC(=O)c2coc3c2[C@@]1(C)C1=C(C3=O)[C@@H]2CCC(=O)[C@@]2(C)C[C@H]1OC(C)=O [Wortmannin]
Epstein-Barr virus (EBV) [1]
  TI (therapeutic index, CC50/IC50 ratio): 13
Epstein-Barr virus (EBV) [1]; [8]
  effect on EBV replication in words: effective in inhibiting the EBV replication
Epstein-Barr virus (EBV) [4]
  IC50: 367 nM
EBV early protein EA-D; 1μM PKI, Fig. 2B
  EA-D expression (immunoblot): no EA-D expression was detected
EBV early protein EA-D
  viral reactivation assessed by expression of EA-D, in words: inhibited EA-D expression
In vitro
  CC50 at 48 h: 4690 nM

## O=c1c(O)c(-c2ccc(O)c(O)c2)oc2cc(O)cc(O)c12 [quercetin]
Epstein-Barr virus (EBV) [1]; [8]
  effect on EBV replication in words: lack of activity
